Where a name gives a salt, the structure may show the parent alone.
What follows are compounds tested on MTT (mouse pheochromocytoma) (assay: IC50 of cell viability (ATP content)). Settings: (24 or 48 h).
In short: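 Cells of the MTT mouse pheochromocytoma line, 5 µl per well at 200,000 cells/ml, were grown overnight at 37°C, 5% CO2 in white 1536-well plates with DMEM, 5% FBS and 1% horse serum. Pintool transfer then delivered 23 nl of library compound in DMSO, giving 8 final concentrations from 0.5 nM to 46 µM, for an exposure of 24 or 48 hrs. Luminescence from CellTiter-Glo was read after 15 minutes and referenced to positive-control wells (100%) and DMSO wells (0%). IC50 was calculated with a four-parameter logistic fit.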
In the case of `CCN(CC)CC#CCOC(=O)[C@@](O)(c1ccccc1)C1CCCCC1` [Oxybutynin chloride], the “IC50 of cell viability” value is reported as > 46 µM.
`N[C@@H](Cc1cc(I)c(O)c(I)c1)C(=O)O` [3,5-DIIODO-L-TYROSINE] was tested, and the “IC50 of cell viability” value was > 46 µM.
`COC1=NC(=NC(=C1N\C2=N\CCN2)Cl)C` [Moxonidine] was tested, and the “IC50 of cell viability” value was > 46 µM.
`NC(=O)NO` [HYDROXYUREA] was tested, and the “IC50 of cell viability” value was > 46 µM.
With `COc1cc([C@H]2c3cc4c(cc3[C@@H](O[C@@H]3O[C@H]5CO[C@@H](C)O[C@@H]5[C@@H](O)[C@H]3O)[C@@H]3COC(=O)[C@H]23)OCO4)cc(OC)c1O` [Etoposide] the “IC50 of cell viability” value was > 46 µM.
For `O=CC=O` [Glyoxal], the “IC50 of cell viability” value was > 46 µM.
`COc1ccc(C(CN(C)C)C2(O)CCCCC2)cc1` (stereo not drawn) [VENLAFAXINE] was tested, and the “IC50 of cell viability” value was > 46 µM.
For `Cc1cc(C)cc(OCC2CNC(=O)O2)c1` (stereo not drawn) [METAXALONE], the “IC50 of cell viability” value was > 46 µM.
`Cc1c(F)c(N2CCNC(C)C2)cc2c1c(=O)c(C(=O)O)cn2C1CC1` (stereo not drawn) [GREPAFLOXACIN HYDROCHLORIDE] was tested, and the “IC50 of cell viability” value was > 46 µM.
In the case of `CCC1CC2CC3c4[nH]c5ccc(OC)cc5c4CCN(C2)C13` (stereo not drawn) [Ibogaine], the “IC50 of cell viability” value is reported as > 46 µM.
`Clc1ccccc1C(c1ccccc1)(c1ccccc1)n1ccnc1` [Clotrimazole] was tested, and the “IC50 of cell viability” value was > 46 µM.
With `CC1=C(/C=C/C(C)=C/C=C/C(C)=C/C(=O)O)C(C)(C)CCC1` [TRETINOIN] the “IC50 of cell viability” value was > 46 µM.
For `CC1(C)C(/C=C/C=C/C=C/C=C2\N(CCCCS(=O)(=O)[O-])c3ccc4ccccc4c3C2(C)C)=[N+](CCCCS(=O)(=O)[O-])c2ccc3ccccc3c21` [INDOCYANINE GREEN], the “IC50 of cell viability” value was > 46 µM.
In the case of `CC12CC3CC(C)(C1)CC(N)(C3)C2` [MEMANTINE], the “IC50 of cell viability” value is reported as > 46 µM.
`CC(CC(C#N)(c1ccccc1)c1ccccc1)N(C)C` (stereo not drawn) [(?)-4-Dimethylamino-2,2-diphenylvaleronitrile] was tested, and the “IC50 of cell viability” value was > 46 µM.
With `N[C@@H](CCC(=O)O)C(=O)O` [L-GLUTAMIC ACID] the “IC50 of cell viability” value was > 46 µM.
`CCC(CC)(CC(=O)Nc1cccc(/C=C/c2nc(C3CCC3)cs2)c1)C(=O)O` [CINALUKASTUM] was tested, and the “IC50 of cell viability” value was > 46 µM.
In the case of `CC(=O)O[C@H]1C[C@@H]2CC[C@@H]3[C@H](CC[C@@]4(C)[C@H]3C[C@H]([N+]3(C)CCCCC3)[C@@H]4OC(C)=O)[C@@]2(C)C[C@@H]1N1CCCCC1` [VECURONIUM BROMIDE], the “IC50 of cell viability” value is reported as > 46 µM.
In the case of `CN1[C@@H]2CC[C@@H]1CC(OC1c3ccccc3CCc3ccccc31)C2.O=C(O)CC(O)(CC(=O)O)C(=O)O` (stereo partly drawn) [Deptropine citrate], the “IC50 of cell viability” value is reported as > 46 µM.
In the case of `Cc1cc2c(cc1[S+](N)(=O)[O-])[S+](=O)([O-])CCC2` [Meticrane], the “IC50 of cell viability” value is reported as > 46 µM.
For `CC(=O)Oc1ccc(C2(c3ccc(OC(C)=O)cc3)Oc3ccccc3NC2=O)cc1` [Bisoxatin Acetate], the “IC50 of cell viability” value was > 46 µM.
In the case of `NC(CCC(=O)N[C@@H](CS)C(=O)NCC(=O)O)C(=O)O` (stereo partly drawn) [GLUTATHIONE], the “IC50 of cell viability” value is reported as > 46 µM.
For `CNC(=O)NC(O)C(Cl)(Cl)Cl` (stereo not drawn) [MECLORALUREA], the “IC50 of cell viability” value was > 46 µM.
`C[C@H](N)Cc1ccccc1` [AMPHETAMINE ADIPATE] was tested, and the “IC50 of cell viability” value was > 46 µM.
With `CCNc1nc(Cl)nc(NCC)n1` [SIMAZINE] the “IC50 of cell viability” value was > 46 µM.
With `Cc1ccccn1` [PICOLINE, ALPHA] the “IC50 of cell viability” value was > 46 µM.
With `O.O=C([O-])CC([S][Au])C(=O)[O-].[Na+].[Na+]` (stereo not drawn) [Sodium aurothiomalate hydrate] the “IC50 of cell viability” value was > 46 µM.
In the case of `Cc1cc(N)c2cc(NC(=O)Nc3ccc4nc(C)cc(N)c4c3)ccc2n1` [AMINOQUINURIDUM], the “IC50 of cell viability” value is reported as > 46 µM.
With `CNCCCN1c2ccccc2CCc2ccccc21` [Desipramine hydrochloride] the “IC50 of cell viability” value was > 46 µM.
In the case of `Nc1nc(N)c2nc(-c3ccccc3)c(N)nc2n1` [Triamterene], the “IC50 of cell viability” value is reported as > 46 µM.
For `Cc1cccc(C)c1NC(=O)c1ccccc1C(=O)O` [Ftaxilida], the “IC50 of cell viability” value was > 46 µM.
In the case of `O\C1=C(/C/C2=C(\O)C3=C(OC2=O)C=CC=C3)C(=O)OC4=C1C=CC=C4` [Dicumarol], the “IC50 of cell viability” value is reported as > 46 µM.
For `CO[C@H]1[C@@H](O)[C@H](N)[C@@H](O[C@H]2O[C@@H]([C@H](C)N)CC[C@H]2N)[C@H](O)[C@@H]1N(C)C(=O)CN` [ASTROMICIN SULPHATE], the “IC50 of cell viability” value was > 46 µM.
For `CC(C)NC[C@H](O)c1cc(O)cc(O)c1` [Metaproterenol sulfate, orciprenaline sulfate], the “IC50 of cell viability” value was > 46 µM.
For `[2H]c1c([2H])c([2H])c2c([nH]c(=S)n2C2CCN(CCCC(=O)c3ccc(F)cc3)CC2)c1[2H]` [Timiperone], the “IC50 of cell viability” value was > 46 µM.
For `N#CC(C#N)=Cc1cc(O)c(O)c(O)c1` [Tyrphostin 25], the “IC50 of cell viability” value was > 46 µM.
In the case of `C/C(=C(\CCO)SSCC1CCCO1)N(C=O)Cc1cnc(C)nc1N` (stereo not drawn) [Fursultiamine], the “IC50 of cell viability” value is reported as > 46 µM.
For `N[S+](=O)([O-])c1cc(C(=O)O)c(NCc2ccco2)cc1Cl` [Furosemide], the “IC50 of cell viability” value was > 46 µM.
`CC1=C(/C=C/C(C)=C\C=C\C(C)=C\C=C\C=C(C)\C=C\C=C(C)\C=C\C2=C(C)C[C@@H](O)CC2(C)C)C(C)(C)C[C@H](O)C1` [ZEAXANTHIN] was tested, and the “IC50 of cell viability” value was > 46 µM.
With `C[C@H](CCCC(C)(C)O)[C@H]1CC[C@H]2[C@@H]3CC=C4C[C@@H](O)CC[C@]4(C)[C@H]3CC[C@]12C` [25-Hydroxycholesterol] the “IC50 of cell viability” value was > 46 µM.
With `CCCCCN(C)CC[C@@](O)(P(=O)([O-])O)P(=O)(O)O` [IBANDRONATE SODIUM] the “IC50 of cell viability” value was > 46 µM.
`COC(=O)[C@@H](N)CCCNC(=N)N[N+](=O)[O-]` [N-NITRO-ARGININE METHYL ESTER] was tested, and the “IC50 of cell viability” value was > 46 µM.
For `CC(C)NCC(O)c1ccc2ccccc2c1` (stereo not drawn) [PRONETHALOL], the “IC50 of cell viability” value was > 46 µM.
`NC(=O)CN1CCCC1=O` [Piracetam] was tested, and the “IC50 of cell viability” value was > 46 µM.
In the case of `O=C(N[C@@H]1N=C(c2ccccc2F)c2cccc3c2N(CC3)C1=O)c1cc2ccccc2[nH]1` [Pranazepide], the “IC50 of cell viability” value is reported as > 46 µM.
In the case of `Cc1ccc(Nc2c(F)cccc2Cl)c(CC(=O)O)c1` [Lumiracoxib], the “IC50 of cell viability” value is reported as > 46 µM.
With `O=C([O-])Cc1ccccc1Nc1c(Cl)cccc1Cl.[Na+]` [DICLOFENAC SODIUM] the “IC50 of cell viability” value was > 46 µM.
`CCO[C@H]1O[C@@H]([C@H](COCc2ccccc2)OCc2ccccc2)[C@@H](OCc2ccccc2)[C@@H]1O` [Tribenoside] was tested, and the “IC50 of cell viability” value was > 46 µM.
For `O=C1C[N+]([O-])=C(c2ccccc2)c2cc(Cl)ccc2N1` [Demoxepam], the “IC50 of cell viability” value was > 46 µM.
With `C/C=C(\C(=C\C)c1ccc(O)cc1)c1ccc(O)cc1` [Dienestrol] the “IC50 of cell viability” value was > 46 µM.
With `CCC1(c2ccccc2)C(=O)NC(=O)N(C)C1=O` (stereo not drawn) [Mephobarbital] the “IC50 of cell viability” value was > 46 µM.
With `CN(C)CCOC(=O)COc1ccc(Cl)cc1` [Meclofenoxate hydrochloride] the “IC50 of cell viability” value was > 46 µM.
`Cc1cc(-c2ccc(/N=N/c3ccc4c([S+](=O)([O-])O)cc([S+](=O)([O-])O)c(N)c4c3O)c(C)c2)ccc1/N=N/c1ccc2c([S+](=O)([O-])O)cc([S+](=O)([O-])O)c(N)c2c1O` [C.I. Direct Blue 53] was tested, and the “IC50 of cell viability” value was > 46 µM.

— the supplement of paper PMC3974653
